Data: PubChem BioAssay (NCI)
Several values for one entry are separate records, joined by “and”; a condition that tells them apart may be missing. Equal values may be shown once.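 Step 1: Grow cells in 96-well plates. Step 2: Expose to compound for 48 hours at 5 concentrations. Step 3: Interpolate endpoints linearly; if unreached, use highest concentration. At the GI50, growth is halved. TGI is the concentration that stops growth completely.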

Assays:
Experiment in all cases: DTP human tumour cell line panel, 48 h
[1] = tested on: EKVX NSCLC
[2] = tested on: OVCAR-8 ovarian
[3] = tested on: UACC-62 melanoma
[4] = tested on: SK-MEL-5 melanoma
[5] = tested on: SK-MEL-28 melanoma
[6] = tested on: A498 renal
[7] = tested on: SNB-19 CNS
[8] = tested on: COLO 205 colon
[9] = tested on: MALME-3M melanoma
[10] = tested on: PC-3 prostate

Structure (SMILES)	TGI [1]	TGI [2]	TGI [3] [µM]	TGI [4]	TGI [5]	TGI [6]	TGI [7]	TGI [8]	TGI [9]	GI50 [1]	GI50 [2]	GI50 [4]	GI50 [6]	GI50 [7]	GI50 [8]	GI50 [3] [µM]	GI50 [10]	TGI [10]	GI50 [5]	GI50 [9]
O=C(c1ccco1)c1ccccc1C(=O)c1ccco1	> 100 µM	> 100 µM	> 100	> 100 µM	> 100 µM	> 100 µM	> 100 µM	> 100 µM	> 100 µM											
CSc1c(S(C)=O)[nH]c2cc(Br)cc(Br)c12 (configuration not stated)	59.7 µM	61.8 µM	39.3	38.1 µM	43.4 µM	62.1 µM		33.1 µM	48.8 µM											
COc1cc(-c2nc(-c3nnc(-c4ccc(F)c(Cl)c4)o3)c3ccccn23)cc(OC)c1OC	> 100 µM	4.44 µM		> 100 µM		6.76 µM	5.36 µM	> 100 µM		4.19 µM	1.69 µM	3.03 µM	1.55 µM	1.93 µM	4.68 µM					
CN(C)CCNC(=O)c1cccc2ccc(-c3cccnc3)nc12	19.8 µM	> 100 µM	14.8	12.9 µM	24.3 µM	8.22 µM	22.6 µM	13.6 µM	16.8 µM											
Cc1cc2c(=O)cc(-c3ccc(C(F)(F)F)cc3)oc2c(C(=O)O)c1C	> 100 µM	> 100 µM	> 100	> 100 µM	> 100 µM		> 100 µM	> 100 µM	> 100 µM											
CCOC(=O)/C(=C/c1ccccc1)C(=O)c1ccccc1		6.79 µM	9.15	9.35 µM	6.59 µM	13.1 µM	20.7 µM	5.04 µM	9.09 µM		2.4 µM	2.91 µM	3.08 µM	5.84 µM	2.43 µM	2.73	4.6 µM	22.7 µM	2.42 µM	2.94 µM
COc1cc[c]([Sb]([Br])([CH]=C(C)C)([CH]=C(C)C)[CH]=C(C)C)cc1	39.6 µM	> 100 µM	> 100	9.92 µM	93.5 µM	> 100 µM	78.9 µM	7.99 µM	> 100 µM	2.28 µM	8.15 µM	3.03 µM	28.8 µM	5.4 µM	1.95 µM	3.41			2.98 µM	2.28 µM
CCOC(=O)C1(Br)C(c2ccccc2)NC(=O)N(C2OC(COC(=O)c3ccccc3)C(OC(=O)c3ccccc3)C2OC(=O)c2ccccc2)C1(C)Br (configuration not stated)	> 94.5 µM	> 100 µM	60.1	31.3 µM	> 83.8 µM	> 100 µM	> 100 µM	> 65.7 µM	66.7 µM											
CCOC(=O)C12CCSC1C1(C#N)C(C#N)=CC2(N=P(c2ccccc2)(c2ccccc2)c2ccccc2)n2c(=O)n(-c3ccccc3)c(=O)n21 (configuration not stated)	> 100 µM	> 100 µM	77.9	55.4 µM	73.3 µM	> 100 µM	> 100 µM	> 100 µM	> 100 µM											
COc1ccc(C(=O)Nc2ccc(S(=O)(=O)NCC(=O)O)cc2)cc1	> 100 µM	> 100 µM	> 100	> 100 µM	> 100 µM	> 100 µM	> 100 µM	> 100 µM	> 100 µM											
Cc1ccc(/C=N/NS(=O)(=O)c2ccccc2)cc1	> 100 µM	> 100 µM	> 100	> 100 µM	> 100 µM	> 100 µM		> 100 µM	> 100 µM											
N.N.N.N.N.N#N.[Cl-].[Os+7]	> 100 µM	> 100 µM	> 100	> 100 µM	> 100 µM		> 100 µM	> 100 µM	> 100 µM	> 100 µM	> 100 µM	> 100 µM		> 100 µM	> 100 µM	> 100			> 100 µM	> 100 µM
NCCn1ccc(NC(c2ccccc2)(c2ccccc2)c2ccccc2)nc1=O	59.9 µM	> 100 µM			35 µM	> 100 µM		78.6 µM	33.4 µM											
COc1cc([N+](=O)[O-])c(S(=O)(=O)O)cc1N	> 100 µM	> 100 µM	> 100	> 100 µM	> 100 µM	> 100 µM	> 100 µM	> 100 µM										> 100 µM		
O=C(c1ccccn1)c1nc(-c2ccc(Cl)c(Cl)c2)nc2ccc(Cl)cc12	> 100 µM	> 100 µM	> 100	> 100 µM	> 100 µM	> 100 µM			> 100 µM											
CCN1/C(=C/C=C/C=C/c2sc3ccccc3[n+]2CC)Sc2ccccc21	0.798 µM	2.58 µM	1.88	1.42 µM	2.75 µM	4.12 µM	1.89 µM	0.347 µM		0.122 µM	0.398 µM	0.314 µM	0.943 µM	0.35 µM	0.191 µM	0.512	0.243 µM	1.39 µM	0.72 µM	
Fc1c[c-]c(-c2ccccn2)c(F)c1.[CH3-].[Pt+2].c1ccc([PH+](c2ccccc2)c2ccccn2)cc1	5.52 µM	> 100 µM		3 µM	3.15 µM	4.06 µM	> 100 µM	5.72 µM	2.81 µM	1.96 µM	2.25 µM	1.6 µM	1.48 µM	3.25 µM	1.77 µM		1.41 µM	3.89 µM	1.64 µM	1.35 µM
CC1(C(=O)NCCN(CCNC(=O)C2(C)CC3(C)CC(C)(C2)C(=O)NC3=O)CCNC(=O)C2(C)CC3(C)CC(C)(C2)C(=O)NC3=O)CC2(C)CC(C)(C1)C(=O)NC2=O (configuration not stated)	> 100 µM	> 100 µM	> 100		> 100 µM	> 100 µM	> 100 µM	> 100 µM												
O=C(N[C@@H]1C=CCC[C@@H]1c1ccccc1)OCc1ccccc1	72.5 µM	42.6 µM	28	33.3 µM	46.5 µM	39 µM	99.6 µM	33.1 µM	37 µM											

Structure (SMILES)	TGI [1]	TGI [2]	TGI [3] [µM]	TGI [4]	TGI [5]	TGI [6]	TGI [7]	TGI [8]	TGI [9]	GI50 [1]	GI50 [2]	GI50 [4]	GI50 [6]	GI50 [7]	GI50 [8]	GI50 [3] [µM]	GI50 [10]	TGI [10]	GI50 [5]	GI50 [9]
Cc1cccc(Cl)c1NC(N)=S	> 100 µM	79.8 µM	> 100	> 100 µM	> 100 µM	> 100 µM	> 100 µM	> 100 µM	> 100 µM											
COc1cc(-c2cc(-c3nc4cc(Cl)c(Cl)cc4[nH]3)[nH]n2)cc(OC)c1OC		7.48 µM	4.31	3.24 µM	12.3 µM	28.3 µM	22.2 µM	12.7 µM	12.4 µM		2.51 µM	1.56 µM	4.21 µM	5.47 µM	3.77 µM	1.94	2.2 µM	7.89 µM	3.07 µM	2.7 µM
COc1ccc2c(c1)C(=O)c1c-2c(OCCN(C)C)nc2cc(OC)ccc12	8.63 µM	5.35 µM	8.51	3.38 µM	4.19 µM	3.07 µM	6.24 µM	10.8 µM		2.13 µM	0.957 µM	1.73 µM	1.39 µM	1.12 µM	0.571 µM	2.12	1.24 µM	3.69 µM	2.08 µM	
O=c1c2cc(Br)ccc2nc(-c2ccccc2)n1NCC1(O)OCC(O)C(O)C1O (configuration not stated)	> 100 µM	> 100 µM	> 100	> 100 µM	> 100 µM	> 100 µM	> 100 µM	> 100 µM	> 100 µM											
CN(C)c1ccc(/C=C/c2ccnc3ccc4ccccc4c23)cc1		> 100 µM	> 100	> 100 µM	> 100 µM	69.1 µM	> 100 µM	> 100 µM	58.5 µM									> 100 µM		
COc1ccc(OC)c(/C=C/C(=O)C(C)(C)C)c1	43.9 µM	38 µM	23.4	29.1 µM	31.8 µM	80 µM	32.4 µM	33.3 µM	45.3 µM											
CCCCCCCCCCCCC/C=C1\C[C@H](O)COC1=O	32 µM		26.8	26.6 µM	30.3 µM	33.7 µM	32.9 µM		35.5 µM											
O=C(O)c1c([N+](=O)[O-])cc(C(F)(F)F)cc1[N+](=O)[O-]	> 100 µM	> 100 µM		> 100 µM	> 100 µM	> 100 µM	> 100 µM	> 100 µM												
COc1cc(OC)cc(-c2ccc(-c3ccc(C(=N)N)s3)s2)c1		4.16 µM	3.53	2.81 µM	3.51 µM	3.05 µM	3.69 µM	0.407 µM	3.28 µM		1.66 µM	1.41 µM	1.46 µM	1.72 µM	0.209 µM	1.75	1.42 µM	2.93 µM	1.52 µM	1.25 µM
CCOc1ccccc1NC(=O)C(=O)C(C(=O)c1ccc2ccccc2c1)C1OC(=O)c2ccccc21 (configuration not stated)	77.3 µM	38.8 µM	21.3	24.5 µM	35.5 µM	30.5 µM	22 µM	29.7 µM	30.2 µM											
CN(C)CCNC(=O)c1cccc2cc([N+](=O)[O-])ccc12	6.33 µM and 2.28 µM	7.43 µM and 1.65 µM		4.92 µM and 0.774 µM	4.2 µM and 0.977 µM	4.53 µM and 0.91 µM	16.1 µM and 2.38 µM		2.75 µM and 0.621 µM		0.605 µM and 0.157 µM	1.65 µM and 0.213 µM	1.19 µM and 0.185 µM	2.55 µM and 0.342 µM	0.893 µM and 0.217 µM			9.44 µM	1.83 µM and 0.279 µM	1.33 µM and 0.179 µM
O=C(CCc1ccco1)NC1CCN(CC2(c3ccc(Cl)cc3)CCC2)CC1		30.1 µM	30.8	28.7 µM	29.1 µM	11.9 µM	30.7 µM	31.8 µM	29.4 µM		14.5 µM	15.2 µM	0.0318 µM	15.1 µM	15.3 µM	15.9	14.1 µM	31.1 µM	15.3 µM	13.8 µM
O=C1NC2(CCCC2)/C(=N\O)C12CCCC2	> 100 µM	> 100 µM	> 100	> 100 µM	> 100 µM	> 100 µM	> 100 µM	> 100 µM	> 100 µM											
Cc1cc(C(=O)N[C@@H](CCC(=O)O)C(=O)O)sc1CC[C@@H]1CNc2nc(N)[nH]c(=O)c2C1		> 90.6 µM	> 100	> 100 µM	> 100 µM	> 100 µM	> 100 µM	> 100 µM	> 100 µM		< 0.0172 µM	0.0679 µM	0.0598 µM	0.0853 µM	0.0309 µM	0.0378	< 0.01 µM	> 100 µM	0.0377 µM	0.0398 µM
COc1ccc(N2CCN(CN3CCN(c4ccc(OC)cc4)C3)C2)cc1	> 100 µM	> 100 µM	> 100	> 100 µM	> 100 µM	> 100 µM	> 100 µM	> 100 µM		> 100 µM	> 100 µM	> 100 µM	1.82 µM	> 100 µM	> 100 µM	> 100	> 100 µM	> 100 µM	> 100 µM	
COc1ccc2nc3ccccc3c(NCCCCCN(CCCl)CCCl)c2c1	4.1 µM	2.2 µM	1.8	0.433 µM	1.19 µM		0.914 µM	0.429 µM												
Clc1ccccc1C1N2CCCCC2[C@@H]2c3[nH]c4ccccc4c3CCN12 (some centres not stated)	> 100 µM	39.9 µM	30.2		34.2 µM	30.3 µM	82.7 µM	37.4 µM	22.1 µM											
COC1=C(C)C(=O)C2=C(C1=O)C(CO)N1C(C#N)C3CC4C(C1C2N1CCOC41)N3C (configuration not stated)		0.257 µM and 0.404 µM and 0.0957 µM		0.214 µM and 0.0802 µM and 0.114 µM			8.15 µM and 5.65 µM and 13.6 µM	0.0203 µM and 0.0151 µM and 0.0205 µM		0.00438 µM and < 0.0144 µM		0.00264 µM and 0.0262 µM			0.000734 µM and 0.00604 µM and < 0.0134 µM		0.00946 µM and 0.0889 µM and 0.0764 µM	0.663 µM and 0.387 µM		
